Assay results: patent publication US20240239806A1, “COMPOUNDS, COMPOSITIONS AND METHODS OF TREATING DISORDERS” (Chengdu Anticancer Bioscience, Ltd., priority 2021, published 2024)
pEC50, pIC50: −log10 of the molar value. Like-named read-outs stand apart in the source and are kept apart here.

Assays:
Type in all cases: cell-based
RPEMYC^H2B-GFP cells = assay: Phenotypic screening assay (mitotic arrest, polyploidy); details: 1 nM to 30 μM; for pIC50: read-out: Proliferative arrest (>50%)
Summary of the method: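 RPE cells expressing MYC and H2B-EGFP treated with compound at 1 nM–30 μM; mitotic index scored at 24 h and polyploidy (DNA content) at 48 h by automated imaging, with reads at 24, 48 or 72 h. Hits show transient mitotic arrest followed by polyploid accumulation.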

A549 [1] = assay: MECP in cancer cell line; details: Homo sapiens
Protocol: (§1) Six lung cancer cell lines (NCI-H23, NCI-H460, NCI-H596, NCI-H2170, Calu-6 and A549), two colon cancer cell lines (HCT116 and SW460), one breast cancer cell line MDA-MB-231, one gastric cancer cell line NCI-N87, one prostate cancer cell line DU145, one cervical cancer cell line Hela, and one glioblastoma cell line T98G were obtained from ATCC. The T2 HCC cell line was derived from a mouse liver cancer model initiated by a transgene of MYC. All cell lines were cultured in DMEM (Gibco, Cleveland, TN, USA) supplemented with 5% fetal bovine serum (Gibco), penicillin (100 U/mL)—streptomycin (100 μg/mL) (Gibco, Cat. No. 15140-122), 2 mM L-glutamine (Gibco, 200 mM solution, Cat. No. 25030081), and 1 mM sodium pyruvate (Gibco, 100 mM solution, Cat. No. 11360070) at 37° C. in a humidified incubator that was maintained at 5% CO2.
(§2) We have previously developed a mechanism-informed phenotypic screening assay to identify novel antimitotic agents. Equipped with a prior understanding of the versatile functions of the chromosomal passenger protein (CPP) complex in orchestrating karyokinesis and cytokinesis, the screening assay is to score for phenotypes typically seen when the CPP complex is disabled. Specifically, the parameters for a positive hit are a temporary elevation of mitotic index (MI) at 24 hours of drug treatment and an accumulation of polyploid cells at 48 hours of drug treatment, indicative of mitotic arrest and cytokinetic failure respectively. These parameters exclude compounds that elicit only a prolonged arrest of cells in mitosis, a phenotype typically provoked by spindle toxins. The screening procedure is briefly summarized here. RPEMYC^H2B-GFP cells engineered to express a Histone 2B-EGFP fusion protein were passaged as batches of 96-well plates, 18-24 hours before exposure to the chemical compounds of the present disclosure at concentrations from 1 nM to 30 μM. At 24, 48 or 72 hours after initiation of treatment, cells were analyzed for either an arrest in mitosis or a change in DNA content by GE IN-Cell Analyzer 2000. As set forth in Table 2 below, a value of greater than or equal to 1 nM and less than or equal to 1.0 μM is marked “A”; a value greater than 1.00 μM and less than or equal to 10.0 μM is marked “B”; a value greater than 10.0 μM and less than or equal to 30.0 μM is marked “C”; and a value greater than 30.0 μM is marked “D.”

HCT116 [2] = assay: MECP in cancer cell line; details: Homo sapiens, HCT-116
Protocol: as §1, §2

Hela [3] = assay: MECP in cancer cell line; details: Homo sapiens
Protocol: as §1, §2

MDA-MB-231 [4] = assay: MECP in cancer cell line; details: Homo sapiens
Protocol: as §1, §2

SW480 [5] = assay: MECP in cancer cell line; details: Homo sapiens
Protocol: as §1, §2

T2 HCC [6] = assay: MECP in cancer cell line; details: Mus musculus
Protocol: as §1, §2

NCI-H23 [7] = assay: MECP in cancer cell line; details: Homo sapiens
Protocol: as §1, with “CO2. […]” for “CO2.”

NCI-N87 [8] = assay: MECP in cancer cell line; details: Homo sapiens
Protocol: as §1, with “CO2. […]” for “CO2.”

A549 [9] = assay: MTT assay of cellular proliferation; details: Homo sapiens, 50% inhibition of cellular proliferation
Protocol: as §1
(§3) The MTT assay measures cellular metabolic activity as a proxy for cell viability and involves the conversion of the water-soluble yellow dye MTT [3-(4,5-dimethylthiazol-2-yl)-2,5-diphenyltetrazolium bromide] into an insoluble purple formazan by the action of mitochondrial reductase. Formazan is then solubilized and its concentration is determined by measuring the optical density (OD) value at a wavelength of 570 nm. The value is in proportional to the number of live cells with excellent linearity up to ˜10^6 cells per well. The MTT assay was used to determine the EC50 value, the concentration of a compound that leads to 50% inhibition of cellular proliferation. Briefly, cells were split when growing to the mid-Log phase. Cells in 100 μL of culture medium were seeded into each well of 96-well microplates and cultivated for 15-24 hours to reach a confluence of 20-30% and were then exposed to drugs at concentrations ranging from 1 nM to 30 μM. At the endpoint, 20 μL of a MTT stock solution in DMSO (5 mg/mL) was added to each well that contains 100 μL of DMEM. The microplates were left in the cell culture incubator for 3-4 h before subjected to solubilization and determination of formazan at A570 in a microplate reader (BioTek ELX808iu). […] Therefore, these compounds might hold a broad utility in the treatment of a large variety of human malignancies.

HCT116 [10] = assay: MTT assay of cellular proliferation; details: Homo sapiens, HCT-116, 50% inhibition of cellular proliferation
Protocol: as §1, §3

Hela [11] = assay: MTT assay of cellular proliferation; details: Homo sapiens, 50% inhibition of cellular proliferation
Protocol: as §1, §3

MDA-MB-231 [12] = assay: MTT assay of cellular proliferation; details: Homo sapiens; MDA-MB-231, MTT, 50% inhibition of cellular proliferation
Protocol: as §1, §3

NCI-H23 [13] = assay: MTT assay of cellular proliferation; details: Homo sapiens, 50% inhibition of cellular proliferation
Protocol: as §1, §3

NCI-N87 [14] = assay: MTT assay of cellular proliferation; details: Homo sapiens, 50% inhibition of cellular proliferation
Protocol: as §1, §3

SW480 [15] = assay: MTT assay of cellular proliferation; details: Homo sapiens, 50% inhibition of cellular proliferation
Protocol: as §1, §3

T2 HCC [16] = assay: MTT assay of cellular proliferation; details: Mus musculus, 50% inhibition of cellular proliferation
Protocol: as §1, §3

[17] = read-out: Min. Effective conc. for Polyploidy (≥5%)

Compound	minimal effective concentration (RPEMYC^H2B-GFP cells; [17])	minimal effective concentration (RPEMYC^H2B-GFP cells; read-out: Mitotic Arrest (≥5%))	pIC50 (RPEMYC^H2B-GFP cells)	minimal effective concentration (A549 [1])	minimal effective concentration (HCT116 [2])	minimal effective concentration (Hela [3])	minimal effective concentration (MDA-MB-231 [4])	minimal effective concentration (SW480 [5])	minimal effective concentration (T2 HCC [6])	minimal effective concentration (NCI-H23 [7])	minimal effective concentration (NCI-N87 [8])	pEC50 (A549 [9])	pEC50 (HCT116 [10])	pEC50 (Hela [11])	pEC50 (MDA-MB-231 [12])	pEC50 (NCI-H23 [13])	pEC50 (NCI-N87 [14])	pEC50 (SW480 [15])	pEC50 (T2 HCC [16])	also measured
COc1cc(NC(C)=O)cc(Oc2ccnc3ccc(Br)cc23)c1 [Compound 22, N-(3-((6-bromoquinolin-4-yl)oxy)-5-methoxyphenyl)acetamide]	0.001 to 1 µM	0.001 to 1 µM	6.00 to 9.00	0.001 to 1 µM	0.001 to 1 µM	0.001 to 1 µM	0.001 to 1 µM	0.001 to 1 µM	0.001 to 1 µM	0.001 to 1 µM	0.001 to 1 µM	6.00 to 9.00	6.00 to 9.00	6.00 to 9.00	6.00 to 9.00	6.00 to 9.00	6.00 to 9.00	6.00 to 9.00	6.00 to 9.00	
COc1cc(NC(C)=O)cc(Oc2ccnc3cc(OC)c(OC)cc23)c1 [Compound 27, N-(3-((6,7-dimethoxyquinolin-4-yl)oxy)-5-methoxyphenyl)acetamide]	0.001 to 1 µM	0.001 to 1 µM	6.00 to 9.00	0.001 to 1 µM	0.001 to 1 µM	0.001 to 1 µM	0.001 to 1 µM	0.001 to 1 µM	0.001 to 1 µM	0.001 to 1 µM	0.001 to 1 µM	6.00 to 9.00	6.00 to 9.00	6.00 to 9.00	6.00 to 9.00	6.00 to 9.00	6.00 to 9.00	6.00 to 9.00	6.00 to 9.00	Min. Effective conc. for Polyploidy (≥5%) (RPEMYC^H2B-GFP cells): B (a value greater than 1.00 μM and less than or equal to 10.0 μM); Mitotic Arrest (≥5%) (RPEMYC^H2B-GFP cells): B (a value greater than 1.00 μM and less than or equal to 10.0 μM); Proliferative arrest (>50%) (RPEMYC^H2B-GFP cells): B (a value greater than 1.00 μM and less than or equal to 10.0 μM); Along with Cell Death (RPEMYC^H2B-GFP cells; listed as 23): B (a value greater than 1.00 μM and less than or equal to 10.0 μM)
COc1cc(NC(C)=O)cc(Oc2ccnc3ccccc23)c1 [Compound 14, N-(3-methoxy-5-(quinolin-4-yloxy)phenyl)acetamide]	0.001 to 1 µM	0.001 to 1 µM	6.00 to 9.00	0.001 to 1 µM	0.001 to 1 µM	0.001 to 1 µM	0.001 to 1 µM	0.001 to 1 µM	0.001 to 1 µM	0.001 to 1 µM	0.001 to 1 µM	6.00 to 9.00	6.00 to 9.00	6.00 to 9.00	6.00 to 9.00	6.00 to 9.00	6.00 to 9.00	6.00 to 9.00	6.00 to 9.00	
COC(=O)c1cc2c(Oc3cc(OC)cc(-n4cccn4)c3)ccnc2cc1OC [Compound 32, methyl 7-methoxy-4-(3-methoxy-5-(1H-pyrazol-1-yl)phenoxy)quinoline-6-carboxylate]	0.001 to 1 µM	0.001 to 1 µM	6.00 to 9.00	0.001 to 1 µM	0.001 to 1 µM	0.001 to 1 µM	1 to 10 µM	0.001 to 1 µM	0.001 to 1 µM	0.001 to 1 µM	1 to 10 µM	5.00 to 6.00	5.00 to 6.00	6.00 to 9.00	6.00 to 9.00	6.00 to 9.00	5.00 to 6.00	5.00 to 6.00	5.00 to 6.00	
